Experimental data: the NIST ThermoML archive (doi:10.1021/je034102r)

Assay: molar heat capacity at constant pressure
Conditions: 101.33 kPa, Liquid, heat bridge-scanning calorimeter

CCCCn1cc[n+](C)c1.F[P-](F)(F)(F)(F)F [1-butyl-3-methylimidazolium hexafluorophosphate]
Conditions	molar heat capacity at constant pressure [J/K/mol]
495.63 K	502.43
495.77 K	502.43
495.91 K	502.43
496.05 K	502.72
496.18 K	503.86
496.32 K	504.14
496.46 K	504.14
496.6 K	503.29
496.9 K	505.56
497.04 K	506.13
497.17 K	506.13
497.31 K	504.99
497.45 K	504.42
497.58 K	504.14
497.72 K	503.57
497.86 K	503.57
498 K	503.57
498.13 K	503.29
498.27 K	503.86
498.57 K	504.71
498.7 K	504.42
498.84 K	505.84
498.98 K	507.27
499.11 K	506.98
499.25 K	505.84
499.39 K	504.99
499.52 K	504.71
499.66 K	504.42
499.96 K	504.14
500.1 K	504.42
500.24 K	504.42
500.37 K	504.42
500.51 K	504.71
500.65 K	505.56
500.79 K	506.13
500.92 K	506.41
501.06 K	506.13
501.2 K	506.41
501.34 K	506.7
501.63 K	505.84
501.78 K	506.98
501.92 K	507.55
502.06 K	506.41
502.19 K	505.84
502.33 K	505.56
502.47 K	505.28
502.61 K	504.99
502.74 K	505.28
503.05 K	505.28
503.18 K	504.99
503.32 K	505.28
503.46 K	505.28
503.59 K	505.28
503.73 K	505.84
503.87 K	505.84
504.01 K	505.84
504.14 K	506.13
504.28 K	507.55
504.42 K	505.84
504.71 K	505.84
504.85 K	505.84
504.99 K	506.13
505.13 K	506.41
505.26 K	506.7
505.4 K	506.41
505.54 K	506.98
505.68 K	506.98
505.81 K	505.84
506.11 K	505.84
506.25 K	506.13
506.39 K	507.83
506.53 K	507.27
506.66 K	506.98
506.8 K	506.98
506.94 K	506.41
507.08 K	506.13
507.21 K	506.13
507.35 K	506.7
507.49 K	506.98
507.78 K	507.27
507.92 K	508.12
508.06 K	508.12
508.21 K	508.12
508.35 K	507.27
508.48 K	506.98
508.62 K	506.98
508.76 K	506.98
508.9 K	507.27
509.2 K	506.7
509.33 K	506.98
509.47 K	507.83
509.61 K	508.69
509.75 K	509.25
509.88 K	509.25
510.02 K	507.55
510.16 K	506.7
510.29 K	506.13
510.43 K	506.7
510.57 K	507.55
510.86 K	507.83
511 K	507.27
511.14 K	506.7
511.28 K	506.41
511.41 K	505.84
511.55 K	506.41
511.69 K	507.27
511.83 K	506.98
511.96 K	506.41
512.26 K	506.7
512.4 K	507.27
512.54 K	507.55
512.68 K	507.55
512.81 K	507.55
512.95 K	506.98
513.09 K	506.7
513.23 K	506.98
513.36 K	506.98
513.5 K	506.7
513.64 K	506.41
513.93 K	506.13
514.07 K	506.13
514.21 K	506.13
514.35 K	506.41
514.48 K	507.27
514.62 K	507.83
514.77 K	507.83
514.91 K	507.27
515.05 K	506.98
515.35 K	507.55
515.49 K	507.55
515.62 K	506.98
515.76 K	506.98
515.9 K	506.98
516.04 K	507.27
516.18 K	507.27
516.31 K	506.98
516.45 K	506.98
516.59 K	506.98
516.73 K	506.7
517.03 K	507.27
517.16 K	506.98
517.3 K	507.27
517.44 K	506.98
517.58 K	506.98
517.71 K	507.27
517.85 K	506.98
517.99 K	506.98
518.13 K	507.27
518.43 K	508.97
518.57 K	508.12
518.71 K	507.83
518.85 K	507.55
518.98 K	507.83
519.12 K	508.12
519.26 K	508.4
519.4 K	508.4
519.53 K	508.4
519.67 K	508.12
519.81 K	508.12
520.11 K	508.12
520.24 K	508.4
520.38 K	508.97
520.52 K	508.97
520.66 K	509.25
520.79 K	509.54
520.93 K	509.54
521.07 K	509.25
521.22 K	508.97
521.52 K	509.25
521.66 K	509.25
521.8 K	509.25
521.94 K	509.25
522.07 K	509.25
522.21 K	509.54
522.35 K	509.82
522.49 K	510.39
522.62 K	510.39
522.76 K	510.11
522.9 K	510.11
523.2 K	510.11
523.33 K	509.82
523.47 K	509.82
523.61 K	509.82
523.75 K	509.82
523.88 K	510.11
524.02 K	510.39
524.16 K	510.11
524.3 K	509.82
524.6 K	509.82
524.74 K	510.11
524.87 K	510.11
